Results from patent US20040053872A1, “New sequences” (priority 2000, published 2004).

Tests used:
[1] = tested on: panel of recombinant HIV 1 subtype B RTs; assay: RT binding inhibition (BIC) assay, whole RT panel; settings: all conditions studied
Protocol: (iii) Protocol for RT binding inhibition (BIC) assay: The study was performed in a modified DNA polymerase assay. The inhibitors were serially diluted in five steps, enzyme dilution was added and the enzyme/inhibitor mixtures were incubated for 30 minutes at 33° C. Aliquots of the enzyme/inhibitor mixture were transferred to each well of a microtiter plate containing either immobilised primer, or primer/template. The enzyme was allowed to bind to the immobilised polymer for 90 min at 33° C. The amount of RT used was standardised to an activity corresponding to 40-60 pg (3.3-5.0×10^−16 mol) reference HIV-1 RT per well. The plates were then washed to remove unbound enzyme whereupon the amount of bound enzyme was determined by addition of the appropriate reaction solution for polymerisation (i e a reaction solution devoid of primer for studies of primer binding and a reaction solution devoid of both primer and template for studies of binding to primed template). The polymerase reaction was allowed to proceed for 3 hours at 33° C., whereupon the reaction was terminated by a wash of the plate.
The capacity of the indicated substances to inhibit the binding to primer or to primed DNA template of a panel of recombinant HIV 1 subtype B RTs was studied according to “Protocol for RT binding inhibition (BIC) assay” (protocol (iii) above).

[2] = tested on: Mut1 (RNase H inactive mutant of HIV-1 RT); assay: Test of binding by gel filtration on a SMART system; settings: starting amounts Mut1 210 pmol, oligonucleotide 630 pmol; Mut1 only 0.50 / 0.63
Source text: (§1) In the following experiment, the terms “34-mer” and “35-mer” refer to SEQ ID NO:3 (produced in example A1 above) and SEQ ID NO:4 (produced in example A2 above), respectively. […] Natural RT molecules have an RNase H activity which normally cleaves RNA molecules. […] This mutant is produced according to the method given in Schatz, O., Cromme, F. V., Grüninger-Leitch, F. and Le Grice, S. F. J., Febs Letter. Vol.257, No.2 p.311-314. This RT-mutant is further on referred to as Mut1. The following experiments are carried out:
1. Test of binding by means of separation of the complex Mut1−34-mer (from Example A1) from excess 34-mer using gel filtration on a SMART system.
1. Mut1 is incubated with excess 34-mer for about 90 min at 4° C., buffer Tris-HCl, pH=8.0, containing 5 mM MgCl2. The mixture is then applied to a gel filtration column of a SMART™-type system, which allows simultaneous registration at two different wavelengths.
Starting amounts: Mut=210 pmol; 34-mer=630 pmol. The left peak is the complex Mut1−34-mer. The absorption at 260 nm (the upper curve) is now higher than the absorption at 280 nm (the lower curve): A260/A280=1.13. The right peak is the excess 34-mer, which has the characteristic absorption ratio for nucleic acids: A260/A280=2.01. […]

[3] = tested on: Mut1 (RNase H inactive mutant of HIV-1 RT); assay: Gel mobility shifts in native polyacrylamide gel electrophoresis (PAGE); format: binding
Source text: as §1
2. Gel mobility shifts in polyacrylamide gel electrophoresis (PAGE) experiments.
a) Native 20% PAGE gel is run at 4-5° C. Samples are incubated at 4° C. in 50 mM hepes buffer and 5 mM magnesium chloride and varying salt concentrations as indicated below.
Samples are incubated for 90 min at 4° C. prior to a further 10 min incubation at 4° C. with ammonium sulphate and/or KCl. Samples applied to lanes 4 and 5 have twice the amount of 34-mer used for the other samples.
b) Native 20% PAGE gel run at 4-5° C. Samples are incubated at 4° C. in 50 mM hepes buffer and 5 mM magnesium chloride, with varying concentrations of ammonium sulphate.
Native 20% PAGE gel is run at 4-5° C. Samples are incubated at 4° C. in 50 mM hepes buffer, 15 mM manganese sulphate, 1 mM EDTA and 0.25 mM EGTA.
Samples are incubated 10 min at room temperature prior to a 60 min incubation at 4° C. One μl of sample solution is applied per lane. Electrophoresis is conducted with up to 400 volts while cooling to approximately 4° C. After 0.209 kWh the gel is silver stained.

Molecule | Capacity to prevent RT binding to primer or primed template [1] | A260/A280 of the complex peak Mut1-oligonucleotide [2] | Gel mobility of Mut1 in complex with oligonucleotide ([3]; native 20% PAGE at 4-5° C.) | Complex with Mut1 at high salt concentrations ([3]; native 20% PAGE, ammonium sulphate up to […])
Cc1ccnc2c1NC(=O)c1cccnc1N2C1CC1 [Nevirapine] | unable to prevent RT binding | – | – | –
34-mer: phosphorothioate RNA 34-mer corresponding to bases 10-43 in tRNALys3 with unmodified A, G, C and U nucleotides (example A1) | – | 1.13 | migrates faster than Mut1 alone | remains in complex with Mut1
